The text below walks through data of PubChem BioAssay (NCI).

Some test systems named below: A498 renal; HS 578T breast; LOX IMVI melanoma; MCF7 breast; NCI-H226 lung; SF-268 CNS; SF-295 CNS; SK-MEL-5 melanoma; SNB-75 CNS; SR leukemia.
Holding throughout (test): NCI anticancer screen, dose series, 48 h

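Grown in 96-well plates, cells were treated for 48 hours with each compound at five concentrations. Insufficient inhibition: endpoint recorded as highest concentration tested. The concentration for 50% growth inhibition is given as GI50. TGI marks complete inhibition of growth.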

With `CCOC(=O)c1cn2ncnc(Oc3ccc(NC(=O)NCCN(CC)CC)c(Cl)c3)c2c1C`, the GI50 with A498 renal was 2.15 µM; in the assay with HS 578T breast, 3.88 µM; with LOX IMVI melanoma, 1.85 µM; in the assay on MCF7 breast it was 2.14 µM; in the assay with NCI-H226 lung, 17.9 µM; in the assay on SF-268 CNS it was 2.28 µM. Moreover, the GI50 is 2.14 µM in the assay with SF-295 CNS, 1.81 µM in the assay on SK-MEL-5 melanoma, 3.14 µM in the assay with SNB-75 CNS and 1.96 µM with SR leukemia. The TGI in the assay on A498 renal was 8.08 µM; in the assay with HS 578T breast it was 21.7 µM; with LOX IMVI melanoma, 3.55 µM; in the assay on MCF7 breast it was 5.21 µM; in the assay on NCI-H226 lung it was above 100 µM; with SF-268 CNS, 6.58 µM. Further, the TGI in the assay on SF-295 CNS was 4.71 µM; with SK-MEL-5 melanoma it was 3.3 µM; in the assay on SNB-75 CNS, 31.5 µM; with SR leukemia, 5.15 µM.
In the case of `O=C1C(Nc2cccc(O)c2)=C(Sc2ccc(Cl)cc2)C(=O)N1Cc1ccccc1`, the GI50 with A498 renal is 10.3 µM; with HS 578T breast it was 13.3 µM; in the assay on LOX IMVI melanoma, 8.7 µM; in the assay on MCF7 breast it was 5.86 µM; in the assay on NCI-H226 lung it was 32.6 µM; with SF-268 CNS, 8.73 µM. Moreover, the values for the GI50 in the assay on SF-295 CNS, in the assay with SK-MEL-5 melanoma and in the assay with SR leukemia were 7.5 µM, 8.44 µM and 3.41 µM, respectively. In addition, the TGI with A498 renal was 25.6 µM; in the assay on HS 578T breast it was 58.1 µM; with LOX IMVI melanoma it was 29.1 µM; with MCF7 breast it was above 100 µM; with NCI-H226 lung, above 100 µM; with SF-268 CNS, 44.6 µM. The TGI came to 24.9 µM in the assay with SF-295 CNS, 24.7 µM with SK-MEL-5 melanoma and 14.1 µM in the assay with SR leukemia.
With `Oc1oc(-c2ccccc2)nc1/C=C1/C=NN=N1`, the TGI with A498 renal, in the assay with HS 578T breast, in the assay with LOX IMVI melanoma, in the assay with MCF7 breast, in the assay with NCI-H226 lung and with SF-268 CNS was above 100 µM in each case. The TGI with SF-295 CNS, with SNB-75 CNS and in the assay on SR leukemia was above 100 µM each time.
Consider `C=C(C)C(=O)N1c2ccc(OC)cc2CC1C(=O)OCC` (stereo not given), for which the TGI in the assay on A498 renal, with HS 578T breast, with MCF7 breast, in the assay with NCI-H226 lung, in the assay with SF-268 CNS and in the assay with SF-295 CNS was above 100 µM each time. Further, the TGI in the assay on SK-MEL-5 melanoma, in the assay with SNB-75 CNS and with SR leukemia was above 100 µM each time.
Consider `Cc1[nH]ccc2cc3nc4ccccc4c3cc12`, for which the GI50 was 0.421 µM in the assay on A498 renal; 3.26 µM in the assay on HS 578T breast; 1.34 µM with MCF7 breast; 2.94 µM in the assay with NCI-H226 lung; 2.97 µM in the assay with SF-268 CNS; 1.96 µM with SF-295 CNS. For the same compound, the GI50 was 3.28 µM with SK-MEL-5 melanoma, 5.52 µM in the assay with SNB-75 CNS and 1.13 µM with SR leukemia. The TGI with A498 renal was found to be 2.15 µM; with HS 578T breast it was 18 µM; in the assay on MCF7 breast, 5.63 µM; with NCI-H226 lung it was 12.6 µM; with SF-268 CNS, 14.2 µM; in the assay on SF-295 CNS, 6.79 µM. The results for the TGI in the assay with SK-MEL-5 melanoma, in the assay with SNB-75 CNS and in the assay on SR leukemia were 13.6 µM, 18.9 µM and 3.53 µM, respectively.
In the case of `CCCCCC/C=C\CCCCCCCCCc1c(O)c(OC)cc(O)c1CN(C)C`, the TGI in the assay on A498 renal was 33.4 µM; in the assay on HS 578T breast it was 10.9 µM; with LOX IMVI melanoma, above 100 µM; with MCF7 breast it was 7 µM; in the assay with NCI-H226 lung, 36.7 µM; with SF-295 CNS, 16.2 µM. The TGI in the assay on SK-MEL-5 melanoma turned out to be 18.6 µM; in the assay on SNB-75 CNS it was 13.8 µM; in the assay with SR leukemia, 4.23 µM.
Regarding `CN(C)CCN1C(=O)c2cccc3c(-c4ccc5ncn(C6CCCCC6)c5c4)ccc(c23)C1=O`, the GI50 with A498 renal is 2.15 µM; in the assay with HS 578T breast it was 3.51 µM; in the assay on MCF7 breast, 1.56 µM; with NCI-H226 lung, 2.32 µM; in the assay with SF-268 CNS it was 2.73 µM; in the assay with SF-295 CNS, 1.54 µM. Further, the GI50 in the assay with SK-MEL-5 melanoma was 1.44 µM; in the assay on SNB-75 CNS, 1.78 µM; in the assay with SR leukemia it was 0.496 µM. Further, the TGI in the assay on A498 renal was 5.1 µM; in the assay with HS 578T breast, 20.8 µM; in the assay with MCF7 breast, 11.1 µM; in the assay on NCI-H226 lung, 7.78 µM; with SF-268 CNS, 12.8 µM; with SF-295 CNS, 5.93 µM. Besides, the TGI in the assay on SK-MEL-5 melanoma is 2.85 µM; in the assay with SNB-75 CNS, 10.8 µM; in the assay with SR leukemia, 5.47 µM.
In the case of `O=C(O)CCc1nc(-c2ccccc2)c(-c2ccccc2)o1`, the TGI with A498 renal, in the assay with HS 578T breast, in the assay with LOX IMVI melanoma, in the assay on MCF7 breast, in the assay with NCI-H226 lung and in the assay on SF-295 CNS was above 100 µM in each case. Moreover, the TGI in the assay on SK-MEL-5 melanoma, in the assay on SNB-75 CNS and in the assay on SR leukemia was above 100 µM in each case.
